In ChEMBL document CHEMBL4665641, “Lead optimization and efficacy evaluation of quinazoline-based BET family inhibitors for potential treatment of cancer and inflammatory diseases” (Bioorg Med Chem Lett, 2019):
Each block holds one compound with its values, some of them ahead of it.

Experiments:
MV4-11 = test: Cytotoxicity against human MV4-11 cells assessed as inhibition of cell viability; format: functional, cell-based
[1] = target: T1, Bromodomain-containing protein 4 (Homo sapiens, UniProt O60885); test: Competitive binding affinity to human partial length BRD4 (BD1,2) (N44 to E460 residues) expressed in bacterial expression system by BROMOscan assay
[2] = Cmax in CD-1 mouse at 2 mg/kg, iv measured after 5 mins; format: ADME, organism-based; parameters: route intravenous, dose 2 mg/kg; details: CD-1, mouse, in vivo, read-out: Cmax
[3] = Half life in CD-1 mouse at 2 mg/kg, iv; format: ADME, organism-based; details: in vivo
[4] = Half life in CD-1 mouse at 10 mg/kg, po; format: ADME, organism-based; details: in vivo
[5] = target: T1, Bromodomain-containing protein 4; test: Inhibition of human full-length recombinant N-terminal His-tagged BRD4 (2 to 1362 residues) expressed in Sf9 cells using histone H4 peptide containing acetylated lysine residues as substrate preincubated with enzyme for 30 mins followed by incubation with substrate for 30 mins by Alphascreen assay […]
[6] = AUC(0 to infinity) in CD-1 mouse at 2 mg/kg, iv; format: ADME, organism-based; parameters: time infinity, route intravenous, dose 2 mg/kg; details: in vivo; for AUC(0-inf): CD-1, mouse; for AUC: mouse
[7] = Plasma clearance in CD-1 mouse at 2 mg/kg, iv; format: ADME, organism-based
[8] = AUC(0 to infinity) in CD-1 mouse at 10 mg/kg, po; format: ADME, organism-based; parameters: route oral, time infinity, dose 10 mg/kg; details: CD-1, mouse, in vivo
[9] = Oral bioavailability in CD-1 mouse at 10 mg/kg; format: ADME, organism-based; details: CD-1, mouse, in vivo
[10] = Cmax in CD-1 mouse at 10 mg/kg, po; format: ADME, organism-based; parameters: route oral, dose 10 mg/kg; details: CD-1, mouse, in vivo, read-out: Cmax
[11] = Volume of distribution at steady state in CD-1 mouse at 2 mg/kg, iv; format: ADME, organism-based; details: in vivo, read-out: Vdss
Kasumi 1 [12] = test: Antitumor activity against human Kasumi-1 cells xenografted in CB17 SCID mouse assessed as inhibition of tumor growth at 10 mg/kg, po QD for 29 days; format: functional; details: Kasumi 1, po, 696 h, time 29 day, read-out: TGI
Kasumi 1 [13] = test: Antitumor activity against human Kasumi-1 cells xenografted in CB17 SCID mouse assessed as tumor volume at 10 mg/kg, po QD for 29 days (reference value: 1734 +/- 220 mm3); format: functional; details: time 29 day
Kasumi 1 [14] = test: Antitumor activity against human Kasumi-1 cells xenografted in CB17 SCID mouse assessed as tumor weight at 10 mg/kg, po QD for 29 days (reference value: 2.1+/- 0.3 g); format: functional; details: time 29 day
[15] = Stability in mouse liver microsomes assessed as half life; format: ADME, Microsome

SMILES: CC(=O)N1CCN(c2nc(N3CCOC[C@@H]3c3ccccc3)c3cc(-c4c(C)noc4C)ccc3n2)CC1
IC50 (MV4-11): 1430 nM | Kd [1]: 42 nM

SMILES: Cn1cc(-c2ccc3nc(-c4cnn(CC(C)(C)O)c4)nc(N4CCOC[C@@H]4c4ccc(Cl)cc4)c3c2)ccc1=O
IC50 (MV4-11): 1140 nM | Kd [1]: 119 nM

SMILES: Cn1cc(-c2ccc3nc(-c4cnn(CC(C)(C)O)c4)nc(N4CCOC[C@@H]4C4CCCCC4)c3c2)ccc1=O
IC50 (MV4-11): 530 nM | Kd [1]: 25 nM

SMILES: Cc1noc(C)c1-c1ccc2nc(N3CCN(CCN(C)C)CC3)nc(N3CCOC[C@@H]3c3ccccc3)c2c1
IC50 (MV4-11): 690 nM | AUC [6]: 585 ng·h/mL

SMILES: Cn1cc(-c2ccc3nc(-c4cnn(CC(C)(C)O)c4)nc(N4CCOC[C@@H]4c4ccccc4)c3c2)ccc1=O
Cmax [2]: 1860 ng/mL | half-life [3]: 132 min | half-life [4]: 90 min | IC50 [5]: 57 nM | IC50 (MV4-11): 740 nM | Kd [1]: 69 nM | AUC(0-inf) [6]: 2730 ng·h/mL | clearance [7]: 12.3 mL/min/kg | AUC(0-inf) [8]: 16100 ng·h/mL | bioavailability [9]: 118% | Cmax [10]: 1980 ng/mL | Vd [11]: 1.89 L/kg

SMILES: Cc1cc(-c2ccc3nc(-c4cnn(CC(C)(C)O)c4)nc(N4CCOC[C@@H]4c4ccccc4)c3c2)cn(C)c1=O
Cmax [2]: 2450 ng/mL | half-life [3]: 126 min | half-life [4]: 162 min | IC50 [5]: 11 nM | IC50 (MV4-11): 240 nM | Kd [1]: 23 nM | inhibition in vivo at 10 mg/kg (Kasumi 1 [12]): 65.1% | AUC(0-inf) [6]: 9330 ng·h/mL | clearance [7]: 3.8 mL/min/kg | Activity (Kasumi 1 [13]): 588 mm3 | AUC(0-inf) [8]: 39800 ng·h/mL | bioavailability [9]: 85% | Activity (Kasumi 1 [14]): 0.73 g | Cmax [10]: 2870 ng/mL | Vd [11]: 0.89 L/kg

SMILES: Cc1noc(C)c1-c1ccc2nc(N3CCC4(CCC(=O)N4C)CC3)nc(N3CCOC[C@@H]3c3ccccc3)c2c1
IC50 (MV4-11): 1380 nM | Kd [1]: 51 nM

SMILES: Cn1cc(-c2ccc3nc(-c4cnn(CC(C)(C)O)c4)nc(N4CCOC[C@@H]4C4CC4)c3c2)ccc1=O
IC50 (MV4-11): 2350 nM | Kd [1]: 2200 nM

Continued, in another order:

Cmax [2]: 1580 ng/mL | half-life [3]: 84 min | half-life [4]: 144 min | IC50 [5]: 364 nM | Kd [1]: 220 nM | AUC(0-inf) [6]: 4940 ng·h/mL | clearance [7]: 7.3 mL/min/kg | AUC(0-inf) [8]: 17700 ng·h/mL | bioavailability [9]: 72% | Cmax [10]: 2220 ng/mL | Vd [11]: 1.01 L/kg
SMILES: Cc1noc(C)c1-c1ccc2nc(-c3cnn(CC(C)(C)O)c3)nc(N3CCOC[C@@H]3c3cccs3)c2c1
IC50 (MV4-11): 1950 nM

t1/2 [15]: 18 min | Kd [1]: 195 nM
SMILES: Cc1noc(C)c1-c1ccc2nc(-c3cnn(CC(C)(C)O)c3)nc(N3CCOC[C@@H]3C3CCC3)c2c1
IC50 (MV4-11): 2200 nM

Kd [1]: 85 nM
SMILES: CNC(=O)Cn1cc(-c2nc(N3CCOC[C@@H]3c3ccccc3)c3cc(-c4c(C)noc4C)ccc3n2)cn1
IC50 (MV4-11): 1010 nM

Cmax [2]: 2450 ng/mL | half-life [3]: 90 min | half-life [4]: 102 min | IC50 [5]: 140 nM | Kd [1]: 81 nM | AUC(0-inf) [6]: 4640 ng·h/mL | clearance [7]: 7.3 mL/min/kg | AUC(0-inf) [8]: 21900 ng·h/mL | bioavailability [9]: 95% | Cmax [10]: 3450 ng/mL | Vd [11]: 0.72 L/kg
SMILES: CC(=O)N1CCN(c2nc(-c3cnn(CC(C)(C)O)c3)nc3ccc(-c4c(C)noc4C)cc23)[C@@H](c2ccccc2)C1
IC50 (MV4-11): 850 nM

Kd [1]: 88 nM | AUC [6]: 123 ng·h/mL
SMILES: Cc1noc(C)c1-c1ccc2nc(-c3cnn(CC(C)(C)O)c3)nc(N3CCNC[C@@H]3c3ccccc3)c2c1
IC50 (MV4-11): 590 nM

Kd [1]: 260 nM
SMILES: Cc1noc(C)c1-c1ccc2nc(-c3cnn(CC(C)(C)O)c3)nc(N3CCOC[C@H]3c3ccccc3)c2c1
IC50 (MV4-11): 1730 nM

Cmax [2]: 1590 ng/mL | half-life [3]: 156 min | t1/2 [15]: 52 min | half-life [4]: 168 min | IC50 [5]: 13 nM | Kd [1]: 58 nM | AUC(0-inf) [6]: 5790 ng·h/mL | clearance [7]: 5.9 mL/min/kg | AUC(0-inf) [8]: 26100 ng·h/mL | bioavailability [9]: 90% | Cmax [10]: 2080 ng/mL | Vd [11]: 1.47 L/kg
SMILES: Cc1noc(C)c1-c1ccc2nc(-c3cnn(CC(C)(C)O)c3)nc(N3CCOC[C@@H]3c3ccc(F)cc3)c2c1
IC50 (MV4-11): 1270 nM

t1/2 [15]: 2 min | Kd [1]: 155 nM
SMILES: Cc1noc(C)c1-c1ccc2nc(-c3cnn(CC(C)(C)O)c3)nc(N3CCOC[C@@H]3C3CCCC3)c2c1
IC50 (MV4-11): 1540 nM
